As usually defined, the Cmax is the highest concentration seen after dosing. A word on the MTD: it is the highest dose tested that stayed within the study's limit of toxicity. The low end stands for a narrow tolerated range, the high end for a wide tolerated range.

Where two headings read alike, the source gives them in different places.

Results on 1 molecule are retold here after patent publication US8741889B2, “Method of treating non-small cell lung cancer and colon cancer with gamma-secretase inhibitor” (Hoffmann-La Roche Inc, priority 2008, dated 2014).

Data set [1] can be described thus: Plasma drug exposure in nude mice. Format: in vivo. Conditions: for Cmax / AUC(0-t): po, 10 mg/kg. How it is done:
Plasma samples were prepared and analyzed for compound (1) by LC/MS/MS. Mean plasma concentrations were calculated from 2 animals/group/time point. Plasma samples with concentration below the limit of quantification (<12.5 ng/ml) were set to zero. The pharmacokinetic parameters were estimated from the mean plasma concentration data. Sampling times were reported as nominal time. The pharmacokinetic parameters reported are the maximum plasma concentration (Cmax), the area under the plasma concentration-time curve from zero to 8 hr (AUC0-8 hr), and dose normalized AUC (AUC0-8 hr/Dose). The Cmax values were taken directly from the plasma concentration-time profiles […] without any extrapolation. The AUC was calculated using the linear trapezoidal rule.

The subject of data set [2] is BxPC3 pancreatic xenografts. Kind of data set: Antitumor efficacy in BxPC3 pancreatic xenografts in SCID-beige mice. Format: in vivo. How it is done:
Female (athymic nu/nu) nude mice were obtained from Charles River Laboratories (Wilmington, Mass.), while female SCID-beige mice were purchased from Taconic (Germantown, N.Y.). Mice were used when they were approximately 8-12 weeks old (nudes) or 8-10 weeks old (SCID-beige), and weighed approximately 23-25 grams. The health of all animals was determined daily by gross observation of experimental animals and by the analyses of blood samples of sentinel animals that were housed on the shared shelf racks. All animals were allowed to acclimate and recover from any shipping related stress for a minimum of 72 hours prior to experimental use. Autoclaved water and irradiated food [5058-ms Pico chow (mouse) Purina, Richmond, Ind.] were provided ad libitum, and the animals were maintained on a 12 hour light and dark cycle. Cages, bedding and water bottles were autoclaved before use and were changed weekly. MiaPaca2, AsPC1 and BxPC3 human pancreatic carcinoma cells were purchased from ATCC (Manassas, Va.). BxPC3 and AsPC1 cells were grown in RPMI medium and MiaPaca2 cells were grown in Dulbecco's Modified Essential Medium (DMEM). All culture media were supplemented with 10% (v/v) FBS and 1% (v/v) […]. […] SCID-biege mice were implanted se with 5×10^6 BxPC3 cells in a 1:1 mixture of matrigel:PBS in a volume of 0.2 ml per mouse in the right hind flank on May 22, 2007. […] Formulated compound and vehicle were stored at 4° C. and prepared weekly. The suspension was mixed vigorously prior to administration. Gemcitabine (Gemzar®, Eli Lilly and Company, Indianapolis, Ind., USA) was reconstituted with sterile saline to yield a stock solution of 38 mg/ml for the entire 3-4 week study. […] Nude mice implanted with MiaPaca2 or AsPC1 xenografts were randomized on day 17 and day 9 post cell implant, respectively. SCID-beige mice bearing BxPC3 xenografts were randomized 8 days post implant. […] Treatment for the MiaPaca2 study began on Feb. […] For the MiaPaca2 and AsPC1 studies, qd Compound (1) suspension or q3d gemcitabine treatment ended on day 37 post tumor cell implant, whereas for the BxPC3 study, qd Compound (1) suspension or q3d gemcitabine treatment ended on day 35 post tumor cell implant. Efficacy data was graphically represented as the mean tumor volume+standard error of the mean (SEM). Tumor volumes of treated groups were presented as percentages of tumor volumes of the control groups (% T/C), using the formula: 100×((T−T0)/(C−C0)), where T represented mean tumor volume of a treated group on a specific day during the experiment, T0 represented mean tumor volume of the same treated group on the first day of treatment; C represented mean tumor volume of a control group on the specific day during the experiment, and C0 represented mean tumor volume of the same treated group on the first day of treatment. Tumor volume (in cubic millimeters) was calculated using the ellipsoid formula: (D×(d2))/2 where ‘D’ represents the large diameter of the tumor, and ‘d’ represents the small diameter. In some cases, tumor regression and/or percent change in tumor volume was calculated using the formula: ((T−T0)/T0)×100 where ‘T’ represents mean tumor volume of the treated group at a particular day, and ‘T0’ represents mean tumor volume of the same treated group at initiation of treatment. Statistical analysis was determined by the rank sum test and One Way Anova and a post-hoc Bonferroni t-test (SigmaStat, version 2.0, Jandel Scientific, San Francisco, Calif.). Differences between groups were considered to be significant when the probability value (p) was ≦0.05.

Data set [3] can be described thus: in vivo. How it is done: Treatment began on Sep. 12, 2006 (day 26 post tumor cell implant). Compound (1) and vehicle were dosed as a suspension using a sterile 1 cc syringe and 18-gauge gavage needle (0.2 ml/animal) once (qd) or twice per day (bid) 8 hours apart for either 7, 14 or 21 days out of a 21 day schedule. For animals dosed for 7 days (7+/14−), treatment ended on Sep. 19, 2006 (day 33 post tumor cell implant). These mice were re-treated on day 67 with the same dose of compound (1) for another 7 days until day 74. For animals dose for 14 days (14+/7−) treatment ended on Sep. 26, 2006 (day 40 post tumor cell implant), and for animals dosed for 21 days, treatment ended on Oct. 3, 2006 (day 47 post tumor cell implant).
Weight loss was graphically represented as percent change in mean group body weight, using the formula: ((W−W0)/W0)×100, where ‘W’ represents mean body weight of the treated group at a particular day, and ‘W0’ represents mean body weight of the same treated group at initiation of treatment.

Where [4] appears, read: nude, mouse, in vivo, maximum tolerated dose (MTD).

In the case of `CC(C)(C(=O)NCC(F)(F)C(F)(F)F)C(=O)N[C@@H]1C(=O)Nc2ccccc2-c2ccccc21` [Compound (1), 2,2-Dimethyl-N—((S)-6-oxo-6,7-dihydro-5H-dibenzo[b,d]azepin-7-yl)-N′-(2,2,3,3,3-pentafluoro-propyl)-malonamide], the “dose proportionality of plasma exposure” value in data set [1] (independent PK study in nude mice, up to 30 mg/kg) was “excellent dose proportionality”. In addition, in data set [1] (mouse), the oral bioavailability result is listed as “moderate to high”. The Cmax in data set [1] (nude, mouse, plasma, 10 mg/kg po qd, Day 21 (chronic dosing)) turned out to be 708 ng/mL; in data set [1] (nude, mouse, plasma, 10 mg/kg po, Day 1 (single dose, naïve mice)), 559 ng/mL. For the same molecule, the AUC(0-t) in data set [1] (nude, mouse, plasma, 10 mg/kg po qd, Day 21 (chronic dosing), read-out: AUC0-8 hr) is 923 ng·h/mL; in data set [1] (nude, mouse, plasma, 10 mg/kg po, Day 1 (single dose, naïve mice), read-out: AUC0-8 hr), 1280 ng·h/mL; in data set [1] (nude, mouse, plasma, oral daily dosing of 10 mg/kg, read-out: Exposures (AUC24h) producing efficacy), roughly 1100 ng·h/mL. The AUC in data set [1] (nude, mouse, plasma, oral daily dosing of 10 mg/kg, read-out: Exposures producing efficacy (AUC24/day)) was roughly 1100 ng·h/mL. Moreover, the “% TGI” value worked out at 72% in data set [2] (3 mg/kg po qd, day 35); 82% in data set [2] (10 mg/kg po qd, day 35); 56% in data set [2] (10 mg/kg po, 3+/4− schedule); 63% in data set [2] (20 mg/kg po, 7+/7− schedule); 64% in data set [2] (23 mg/kg po, 3+/4− schedule); 50% in data set [2] (30 mg/kg po, 3+/4− schedule). For the same molecule, the animal deaths entry in data set [3] (30 mg/kg bid for 21 days, 10/group) is “two”. The mice died result in data set [3] (60 mg/kg bid for 14 days, 10/group) is “four”; in data set [3] (60 mg/kg bid for 21 days, 10/group) it was “seven”; in data set [3] (60 mg/kg qd for 21 days, 10/group), “three”. The “maximum tolerated dose (MTD)” value in data set [3] (nude, mouse, in vivo, 21 days) came out at 10 mg/kg. For the same molecule, in data set [3] (setting [4]), the maximal tolerated dose (MTD) at 7 days worked out at 60 mg/kg. Moreover, in data set [3] (setting [4]), the MTD at 14 days came out at 30 mg/kg.
